Results taken from ChEMBL document CHEMBL4842329 (Eur J Med Chem, 2021).

Target: T1, Sodium-dependent serotonin transporter (Homo sapiens, UniProt P31645)
Assay: biochemical
Type: cell-based, HEK293

T1 sequence (P31645 whole entry): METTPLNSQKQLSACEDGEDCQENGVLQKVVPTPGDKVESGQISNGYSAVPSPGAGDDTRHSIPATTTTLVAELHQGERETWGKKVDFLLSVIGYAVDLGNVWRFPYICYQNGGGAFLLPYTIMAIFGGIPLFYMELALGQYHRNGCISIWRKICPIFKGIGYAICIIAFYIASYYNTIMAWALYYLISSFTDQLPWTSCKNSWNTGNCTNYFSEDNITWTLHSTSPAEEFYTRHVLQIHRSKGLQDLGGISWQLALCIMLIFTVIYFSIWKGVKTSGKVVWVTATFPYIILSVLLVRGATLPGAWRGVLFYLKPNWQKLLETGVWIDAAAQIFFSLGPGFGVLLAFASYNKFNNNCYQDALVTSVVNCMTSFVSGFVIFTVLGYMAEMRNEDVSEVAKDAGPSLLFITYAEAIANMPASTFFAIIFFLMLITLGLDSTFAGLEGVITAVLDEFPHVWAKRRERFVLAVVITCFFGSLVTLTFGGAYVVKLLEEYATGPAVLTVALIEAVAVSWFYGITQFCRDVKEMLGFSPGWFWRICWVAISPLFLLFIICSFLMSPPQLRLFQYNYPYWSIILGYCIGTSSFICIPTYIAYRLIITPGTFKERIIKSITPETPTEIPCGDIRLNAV

Ki	SMILES
52 nM	CNCCC(Oc1ccc(Cl)cc1F)c1ccccc1 (stereo not given)
19 nM	CNCCC(Oc1ccc(Br)c(F)c1)c1ccccc1 (stereo not given)
349 nM	CNCCC(Oc1cccc(F)c1)c1ccccc1 (stereo not given)
66 nM	CNCCC(Oc1cccc(Cl)c1)c1ccccc1 (stereo not given)
55 nM	CNCCC(Oc1ccc(Cl)cc1)c1ccccc1 (stereo not given)
1460 nM	CNCCC(Oc1ccccc1)c1ccccc1 (stereo not given)
5 nM	CNCCC(Oc1ccc(Cl)c(Cl)c1)c1ccccc1 (stereo not given)
543 nM	CNCCC(Oc1ccc(F)cc1)c1ccccc1 (stereo not given)
31 nM	CNCCC(Oc1ccc(Cl)c(F)c1)c1ccccc1 (stereo not given)

More lines, now with the values behind:

SMILES	Ki
CNCCC(Oc1ccc(I)cc1F)c1ccccc1 (stereo not given)	23 nM
COCCCC/C(=N\OCCN)c1ccc(Cl)cc1	61 nM
CNCCC(Oc1ccc(Br)cc1)c1ccccc1 (stereo not given)	24 nM
COCCCC/C(=N\OCCN)c1ccc(I)cc1	15 nM
COCCCC/C(=N\OCCN)c1ccc(Br)cc1	23 nM
COCCCC/C(=N\OCCN)c1ccc(Cl)c(Cl)c1	9 nM
COCCCC/C(=N\OCCN)c1ccc(F)cc1	1620 nM
CNCCC(Oc1ccc(I)cc1)c1ccccc1 (stereo not given)	14 nM
COCCCC/C(=N\OCCN)c1ccc(Cl)cc1F	202 nM
COCCCC/C(=N\OCCN)c1ccc(Br)cc1F	137 nM
CNCCC(Oc1ccc(Br)cc1F)c1ccccc1 (stereo not given)	41 nM
COCCCC/C(=N\OCCN)c1ccc(Br)c(F)c1	21 nM
COCCCC/C(=N\OCCN)c1ccc(Cl)c(F)c1	62 nM

Target: T1, Sodium-dependent serotonin transporter
Assay: not given

SMILES	Ki
Brc1ccc([C@@H]2CCNC[C@H]2COc2ccc3c(c2)OCO3)cc1	1.07 nM

Target: T1, Sodium-dependent serotonin transporter
Assay: not given
Type: cell-based, COS7
Remark: another data set of the same source

SMILES	IC50
COC(=O)C1CCC2CC(O)C1N2c1ccccc1 (stereo not given)	15 nM
COC(=O)C1CCC2CC(O)C1N2c1ccc(Cl)c(Cl)c1 (stereo not given)	5650 nM
